From US6762170B1, “2-(purin-9-yl)-tetrahydrofuran-3,4-diol derivatives” (SmithKlineBeecham Corporation, priority 1998, dated 2004)
Counter-ions that a name gives are not always drawn.

Assays:
Type in all cases: cell-based
Adenosine 3 receptor = biological target: T1, Adenosine 3 receptor (Homo sapiens, UniProt P0DMS8); assay: Agonist activity against adenosine 3 receptor subtype (CHO cells, forskolin-enhanced cAMP, SPAP reporter); conditions: EC50 ratio to NECA; transfected CHO cells, forskolin-enhanced cAMP reflected by SPAP
T1 construct: expressed in transfected cells; host or cells: Chinese hamster ovary (CHO) cells, co-transfected with a CRE-SPAP reporter
T1 sequence (P0DMS8 1-318): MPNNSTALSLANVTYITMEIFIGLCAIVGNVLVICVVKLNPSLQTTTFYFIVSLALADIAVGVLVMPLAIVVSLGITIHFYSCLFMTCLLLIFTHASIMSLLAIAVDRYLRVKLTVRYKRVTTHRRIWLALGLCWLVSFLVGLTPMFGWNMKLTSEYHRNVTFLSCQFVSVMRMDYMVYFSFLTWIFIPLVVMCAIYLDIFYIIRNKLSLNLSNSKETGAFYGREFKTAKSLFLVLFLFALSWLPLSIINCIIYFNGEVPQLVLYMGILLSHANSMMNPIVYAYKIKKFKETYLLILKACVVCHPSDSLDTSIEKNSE
How it was run: (§1)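 CHO cells expressed the human receptor plus a cAMP response element–driven SPAP reporter. Agonism was measured as SPAP change from forskolin-enhanced cAMP for A1 and A3, and from basal cAMP for A2a. EC50 is expressed as a ratio to that of NECA.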

Adenosine 2a receptor = biological target: T2, Adenosine 2a receptor (Homo sapiens, UniProt P29274); assay: Agonist activity against adenosine 2a receptor subtype (CHO cells, cAMP response element/SPAP reporter); conditions: EC50 ratio to NECA; transfected CHO cells, basal cAMP reflected by SPAP
T2 construct: expressed in transfected cells; host or cells: Chinese hamster ovary (CHO) cells, co-transfected with a CRE-SPAP reporter
How it was run: as §1

Adenosine 1 receptor = biological target: T3, Adenosine 1 receptor (Homo sapiens, UniProt P30542); assay: Agonist activity against adenosine 1 receptor subtype (CHO cells, forskolin-enhanced cAMP, SPAP reporter); conditions: EC50 ratio to NECA; transfected CHO cells, forskolin-enhanced cAMP reflected by SPAP
T3 construct: expressed in transfected cells; host or cells: Chinese hamster ovary (CHO) cells, co-transfected with a CRE-SPAP reporter
T3 sequence (P30542 1-326): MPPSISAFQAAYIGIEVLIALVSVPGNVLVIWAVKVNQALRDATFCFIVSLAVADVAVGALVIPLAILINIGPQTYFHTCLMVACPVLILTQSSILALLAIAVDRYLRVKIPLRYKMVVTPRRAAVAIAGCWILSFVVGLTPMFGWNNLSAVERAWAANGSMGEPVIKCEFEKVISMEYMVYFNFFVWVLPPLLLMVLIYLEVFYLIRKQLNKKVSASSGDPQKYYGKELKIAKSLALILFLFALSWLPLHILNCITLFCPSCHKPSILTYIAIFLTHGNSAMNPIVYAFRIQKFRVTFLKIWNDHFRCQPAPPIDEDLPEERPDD
How it was run: as §1

T2 sequence (P29274 whole entry): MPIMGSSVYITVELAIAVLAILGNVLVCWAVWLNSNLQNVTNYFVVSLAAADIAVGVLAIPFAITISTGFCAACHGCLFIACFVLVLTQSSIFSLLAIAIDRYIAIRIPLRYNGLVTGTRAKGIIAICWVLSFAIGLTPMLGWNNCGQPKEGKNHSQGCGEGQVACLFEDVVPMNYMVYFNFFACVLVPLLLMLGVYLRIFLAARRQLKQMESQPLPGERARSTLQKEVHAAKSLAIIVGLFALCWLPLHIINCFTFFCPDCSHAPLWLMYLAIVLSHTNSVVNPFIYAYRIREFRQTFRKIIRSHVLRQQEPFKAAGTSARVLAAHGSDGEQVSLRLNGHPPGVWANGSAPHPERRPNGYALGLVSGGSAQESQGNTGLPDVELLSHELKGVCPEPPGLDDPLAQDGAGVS

| Compound | A3 (EC50 values as a ratio of that of NECA) (Adenosine 3 receptor) | A2a (EC50 values as a ratio of that of NECA) (Adenosine 2a receptor) | A1 (EC50 values as a ratio of that of NECA) (Adenosine 1 receptor) |
| --- | --- | --- | --- |
| CCc1cc([C@H]2O[C@@H](n3cnc4c(NCC(c5ccccc5)c5ccccc5)nc(NCCO)nc43)[C@H](O)[C@@H]2O)on1.O=CO [Example 4, (2R,3R,4S,5S)-2-[6-(2,2-Diphenyl-ethylamino)-2-(2-hydroxy-ethylamino)-purin-9-yl]-5-(3-ethyl-isoxazol-5-yl)-tetrahydro-furan-3,4-diol formate] | >267 | 0.92 | 109.3 |
| (2R,3R,4S,5S)-2-[2-Ethylamino-6-(3-iodo-benzylamino)-purin-9-yl]-5-(3-ethyl-isoxazol-5-yl)-tetrahydro-furan-3,4-diol formate [Example 66] | >262 | 8.32 | 189.98 |
| CCc1cc([C@H]2O[C@@H](n3cnc4c(NC(CC)CC)nc(NC5CCCC5)nc43)[C@H](O)[C@@H]2O)on1.O=CO [Example 46, (2R,3R,4S,5S)-2-[2-(Cyclopentylamino)-6-(1-ethyl-propylamino)-purin-9-yl]-5-(3-ethyl-isoxazol-5-yl)-tetrahydro-furan-3,4-diol formate] | >518 | 20.06 | 148.72 |
| (2R,3R,4S,5S)-2-{6-(1-Ethyl-propylamino)-2-[2-(1-methyl-1H-imidazol-4-yl)-ethylamino]-purin-9yl}-5-(3-methyl-isoxazol-5-yl)-tetrahydro-furan-3,4-diol diformate [Example 59] | >385 | 0.13 | 194.3 |
| CCc1cc([C@H]2O[C@@H](n3cnc4c(NC5CCSCC5)nc(NCCN5CCCCC5)nc43)[C@H](O)[C@@H]2O)on1.O=CO.O=CO [Example 12, (2S,3S,4R,5R)-2-(3-Ethyl-isoxazol-5-yl)-5-[2-(2-piperidin-1-yl-ethylamino)-6-(tetrahydro-thiopyran-4-ylamino)-purin-9-yl]-tetrahydro-furan-3,4-diol diformate] | >410 | 3.39 | 260.3 |
| CCc1cc(C2OC(n3cnc4c(Nc5ccc(O)c(F)c5)nc(NCCN5CCCCC5)nc43)C(O)C2O)on1.O=CO.O=CO [Example 10, (2S,3S,4R,5R)-2-(3-Ethyl-isoxazol-5-yl)-5-[6-(3-fluoro-4-hydroxy-phenylamino)-2-(2-piperidin-1-yl-ethylamino)-purin-9-yl]-tetrahydro-furan-3,4-diol diformate] | >180 | 2.07 | 59.38 |
| CCc1cc(C2OC(n3cnc4c(NC5CCCC5)nc(NCCN5CCCCC5)nc43)C(O)C2O)on1 [Example 8, (2S,3S,4R,5R)-2-(3-Ethyl-isoxazol-5-yl)-5-[6-(cyclopentylamino)-2-(2-piperidin-1-yl)-ethylamino)-purin-9-yl]-tetrahydro-furan-3,4-diol diformate] | >310 | 0.67 | 49.1 |
| CCc1cc(C2OC(n3cnc4c(NCCS(=O)(=O)NC)nc(NCCN5CCCCC5)nc43)C(O)C2O)on1 (stereo not drawn) [Example 11, 2-[9-[5S-(3-Ethyl-isoxazol-5-yl)-3R,4S-dihydroxy-tetrahydro-furan-2R-yl]-2-(2-piperidin-1-yl-ethylamino)-9H-purin-6-ylamino]-ethanesulfonic acid methylamide diformate] | >303 | 3.66 | 32.9 |

Results, then the compound that gave them:

| A3 (EC50 values as a ratio of that of NECA) (Adenosine 3 receptor) | A2a (EC50 values as a ratio of that of NECA) (Adenosine 2a receptor) | A1 (EC50 values as a ratio of that of NECA) (Adenosine 1 receptor) | Compound |
| --- | --- | --- | --- |
| >340 | 21.63 | 1359.98 | CCc1cc(C2OC(n3cnc4c(NCc5ccccc5)nc(NCCc5ccccn5)nc43)C(O)C2O)on1.O=CO.O=CO [Example 52, (2S,3S,4R,5R)-2-(3-Ethyl-isoxazol-5-yl)-5-[6-benzylamino-2-(2-pyridin-2-yl-ethylamino)-purin-yl]-tetrahydro-furan-3,4-diol diformate] |
| >525 | 0.244 | 812.2 | CCC(CC)Nc1nc(NCCc2cn(C)cn2)nc2c1ncn2[C@@H]1O[C@H](c2cc(C(C)O)no2)[C@@H](O)[C@H]1O.O=CO.O=CO (stereo partly drawn) [Example 58, (2R,3R,4S,5S)-2-{6-(1-Ethyl-propylamino)-2-[2-(1-methyl-1H-imidazol-4-yl)-ethylamino]-purin-9-yl}-5-[3-(1-hydroxy-ethyl)-isoxazol-5-yl]-tetrahydro-furan-3,4-diol diformate] |
| >221 | 10.3 | 725.4 | CCc1cc(C2OC(n3cnc4c(NCc5ccccc5)nc(NCCN5CCCCC5)nc43)C(O)C2O)on1.O=CO.O=CO [Example 44, (2R,3R,4S,5S)-2-[6-Benzylamino-2-(2-piperidin-1-yl-ethylamino)-purin-9-yl]-5-(3-ethyl-isoxazol-5-yl)-tetrahydro-furan-3,4-diol diformate] |
| >286 | 6.89 | 273.3 | CCc1cc(C2OC(n3cnc4c(NC5CCS(=O)(=O)CC5)nc(NCCNC(=N)N)nc43)C(O)C2O)on1 (stereo not drawn) [Example 26, N-(2-{6-(1,1-Dioxo-hexahydro-1λ6-thiopyran-4-ylamino)-9-[5S-(3-ethyl-isoxazol-5-yl)-3R ,4S-dihydroxy-tetrahydro-furan-2R-yl]-9H-purin-2-ylamino}-ethyl)-guanidine diformate] |
| >238 | 2.59 | 219.1 | CCC(CC)Nc1nc(NCCN2CCCCC2)nc2c1ncn2C1OC(c2cc(Br)no2)C(O)C1O.O=CO.O=CO [Example 67, (2S,3S,4R,5R)-2-(3-Bromo-isoxazol-5-yl)-5-[6-(1-ethyl-propylamino)-2-(2-piperidin-1-yl-ethylamino)-purin-9-yl]-tetrahydro-furan-3,4-diol diformate] |
| >295 | 2.41 | 670.2 | CCc1cc([C@H]2O[C@@H](n3cnc4c(NCC(c5ccccc5)c5ccccc5)nc(N[C@H]5CC[C@H](N)CC5)nc43)[C@H](O)[C@@H]2O)on1.O=CO.O=CO (relative stereo) [Example 19, (2R,3R,4S,5S)-2-[2-(trans-4-Amino-cyclohexylamino)-6-(2,2-diphenyl-ethylamino)-purin-9-yl]-5-(3-ethyl-isoxazol-5-yl)-tetrahydro-furan-3,4-diol diformate] |
| >184 | 27.39 | 149.86 | CCc1cc(C2OC(n3cnc4c(NC(CO)C(C)C)nc(NCCN5CCCCC5)nc43)C(O)C2O)on1 [Example 70, (2S,3S,4R,5R)-2-(3-Ethyl-isoxazol-5-yl)-5-[6-(1(1S-hydroxymethyl-2-methyl-propylamino)-2-(2-piperidin-1-yl-ethylamino)-purin-9-yl]-tetrahydro-furan-3,4-diol diformate] |
| >248 | 0.23 | 573.6 | CCc1cc(C2OC(n3cnc4c(NCC(c5ccccc5)c5ccccc5)nc(NC5CCC(NC(C)=O)CC5)nc43)C(O)C2O)on1 (stereo not drawn) [Example 24, N-(4-{6-(2,2-Diphenyl-ethylamino)-9-[5S-(3-ethyl-isoxazol-5-yl)-3R,4S-dihydroxy-tetrahydro-furan-2R-yl]-9H-purin-2-ylamino}-cyclohexyl)-acetamide formate] |
| >158 | 5.39 | 23.79 | CCc1cc(C2OC(n3cnc4c(NC(CO)C(C)C)nc(NC(CO)Cc5ccccc5)nc43)C(O)C2O)on1 [Example 72, (2S,3S,4R,5R)-2-(3-Ethyl-isoxazol-5-yl)-5-{6-(1S-hydroxymethyl-2-methyl-propylamino)-2-(1S-hydroxymethyl-2-phenyl-ethylamino)-purin-9-yl}-tetrahydro-furan-3,4-diol diformate] |
| >207 | 4.7 | 68.32 | CCc1cc(C2OC(n3cnc4c(NC(CC)CC)nc(NC5CCNC5)nc43)C(O)C2O)on1 [Example 36, (2S,3S,4R,5R)-2-(3-Ethyl-isoxazol-5-yl)-5-[6-(1(-ethyl-propylamino)-2-(pyrrolidin-3R-ylamino)-purin-9-yl]-tetrahydro-furan-3,4-diol diformate] |
